Like-named read-outs stand apart in the source and are kept apart here. Starred links: 1 amine or outer side, 2 acyl side, 3 side chain; linkers in the order of their positions; H or OH if unused. Positions of bridges follow the written chain, without caps; N, C: chain ends. Non-standard residues stand in square brackets, D forms with d. Residues, ends and D or L forms follow the SMILES beside them. Cysteamide = C(CS[*:3])N[*:1]
Tests used:
[1] = disulfide bond, DMSO/TFA, H2O/DMSO/TFA 75:25:0.1
[2] = target: T1, recombinant human thymidylate synthase (hTS) (Homo sapiens, UniProt P04818); assay: hTS inhibition assay (spectrophotometric, absorbance at 340 nm); type: biochemical
T1 construct: made in house
T1 sequence (P04818 whole entry): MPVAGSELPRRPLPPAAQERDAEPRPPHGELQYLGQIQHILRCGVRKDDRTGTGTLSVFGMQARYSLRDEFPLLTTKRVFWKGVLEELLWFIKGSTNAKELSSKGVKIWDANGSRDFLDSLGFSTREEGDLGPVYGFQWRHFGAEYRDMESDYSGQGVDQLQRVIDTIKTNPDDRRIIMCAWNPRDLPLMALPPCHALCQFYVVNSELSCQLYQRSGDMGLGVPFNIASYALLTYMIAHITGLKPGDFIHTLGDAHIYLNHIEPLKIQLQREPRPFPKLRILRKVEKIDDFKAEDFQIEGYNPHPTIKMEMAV
Procedure: hTS was purified as previously reported. The enzyme solution was thawed the day of the experiment and the enzyme concentration was determined by UV−Vis spectroscopy (Varian Cary 100, Agilent, Santa Clara, CA, USA) using ε280 = 89000 M^−1 cm^−1 and Mr = 74 229. The thawed protein solution was kept constantly at 4 °C. In this condition, the enzyme was able to reproduce normal kinetic activity values (KM dUMP = 10−12 μM, KM mTHF = 4−6 μM, kcat = 0.8−0.9 s^−1). The peptide solution was mixed or vortexed in order to help solubilization; the precise concentration was determined through UV−Vis spectroscopy. A stock solution of mTHF was prepared in carbonate buffer. The stock was prepared in the range of 5 to 6 mM. A stock solution of dUMP was prepared in bidistilled water in the range of 10−12 mM. Peptide inhibitors were tested without incubation with hTS in […], at 25 °C. A 1 mL amount of assay buffer consisted of 50 mM TES, pH 7.4, containing 25 mM MgCl2, 6.5 mM HCHO, 1 mM EDTA, 75 mM β-mercaptoethanol (β-ME), 0.120 mM dUMP, and 0.060 mM mTHF. Following the addition of the enzyme (300 nM) and inhibitor mixture, the absorbance was monitored at 340 nm in a UV−Vis spectrophotometer for 3 min. In the control sample, an equal aliquot of enzyme alone was added. hTS activity inhibition percentages (I%) values were measured at 0.100−3000 µM concentration of inhibitor. […] The kinetic inhibition pattern was studied for compound 7 [12]. The inhibition values are expressed as mean ± SEM; n = 3.

[3] = target: T1, recombinant human thymidylate synthase (hTS); assay: as above; type: biochemical; remark: listed apart in the source
IGROV-1 cells = assay: Cytotoxicity, crystal violet cell growth assay, peptides transfected with SAINT-PhD; type: cell-based, human; conditions: at 10 and 25 µM, ranking among the 10 cPs, SAINT-PhD delivery
Procedure: The IGROV-1, A2780, and A2780/CP human ovarian cancer cell lines were grown as monolayer in RPMI 1640 medium containing 10% heat-inactivated fetal bovine serum and 50 µg/mL gentamycin sulfate (Euroclone, Devon, UK). Cultures were equilibrated with humidified 5% CO2 in air at 37 °C. The cDDP-resistant variant A2780/CP cell line, derived from the parent A2780 cell line, is about 10-fold resistant to cDDP and was developed by monthly exposure to cDDP, followed by chronic exposure to stepwise increases in cDDP concentration. All studies were performed in Mycoplasma negative cells, as routinely determined with the MycoAlert Mycoplasma detection kit (Lonza, Walkersville, MD, USA).
Treatment with each peptide was performed according to the standard transfection protocol of the SAINT-PhD delivery system (Synvolux Therapeutics, Leiden, Netherlands). Complexes of peptide (µg) with SAINT-PhD (µL) were prepared at appropriate ratios corresponding to the approximate µM concentrations indicated. For each protein sample, complexes were prepared as follows: for the treatment of a 24-well plate, the appropriate amount of each peptide was diluted in HBS, then SAINT-PhD was pipetted into the solution without vortexing; then, the mixture was incubated for 5 min at room temperature, and filled up to 500 µL with serum-free medium. The culture medium was aspirated from the cells, the SAINT-PhD/peptide complex was added to the wells and incubated 4 h (37 °C, 5% CO2). Afterward, complete RPMI was added to reach the appropriate volume for maintaining the cell culture for the duration of the experiments.
Cell growth was determined using a modified crystal violet assay. On selected days, the tissue culture medium was removed, and the cell monolayer fixed with methanol and stained with 0.2% crystal violet solution in 20% methanol for at least 30 min. After being washed several times with distilled water to remove excess dye, the cells were left to dry. The incorporated dye was solubilized in acidified isopropanol (1N HCl: 2-propanol, 1:10). After appropriate dilution, absorbance was determined spectrophotometrically at 540 nm. The extracted dye was proportional to cell biomass. The percentage of cytotoxicity was calculated by comparing the absorbance of cultures exposed to the drug to unexposed (control) cultures.

`CC(C)C[C@@H]1NC(=O)[C@H](CCC(N)=O)NC(=O)[C@H](C)NC(=O)[C@@H](NC(=O)[C@@H](N)CC(C)C)CSSC[C@@H](C(=O)O)NC(=O)[C@H](CCC(N)=O)NC(=O)[C@H](Cc2ccc(O)cc2)NC1=O` [Leu-c[Cys-Ala-Gln-Leu-Tyr-Gln-Cys]] showed a ring closure, yield after HPLC ([1]; from H-Leu-Cys-Ala-Gln-Leu-Tyr-Gln-Cys-OH, 23-membered ring, 1.06 mM) of 30%.

For `CC(C)C[C@@H]1NC(=O)[C@H](CCC(N)=O)NC(=O)[C@@H]2CCCN2C(=O)[C@@H](NC(=O)[C@@H](N)CC(C)C)CSSCCNC(=O)[C@H](CCCNC(=N)N)NC(=O)[C@H](CCC(N)=O)NC(=O)[C@H](Cc2ccc(O)cc2)NC1=O` [Leu-c[Cys-Pro-Gln-Leu-Tyr-Gln-Arg-CAM]], the ring closure, yield after HPLC ([1]; from H-Leu-Cys-Pro-Gln-Leu-Tyr-Gln-Arg-NHCH2CH2SH, 26-membered ring, 0.93 mM) was 10%.

In the case of `CC(C)C[C@@H]1NC(=O)[C@@H](CCC(N)=O)NC(=O)[C@@H](NC(=O)[C@H](CO)NC(=O)[C@@H](N)CC(C)C)CSSC[C@@H](C(=O)N[C@@H](CCCNC(=N)N)C(=O)O)NC(=O)[C@H](Cc2ccc(O)cc2)NC1=O` [Peptide 5, Leu-Ser-c[Cys-D-Gln-Leu-Tyr-Cys]-Arg] (H-LSC[dQ]LYCR-OH; disulfide 3-7; N-terminus assumed), the “% inhibition of hTS” value ([2]; at 500 µM and r.t.) is reported as “N.I. at 500 µM and r.t. N.I. at 500 µM and 37 °C under stirring” and the “% inhibition of hTS” value ([3]; at 500 µM and 37 °C under stirring) is reported as “N.I. at 500 µM and r.t. N.I. at 500 µM and 37 °C under stirring”.

For `CC(C)C[C@@H]1NC(=O)[C@@H](CCC(N)=O)NC(=O)[C@@H](NC(=O)[C@H](CO)NC(=O)[C@@H](N)CC(C)C)CSSCCNC(=O)[C@H](CCCNC(=N)N)NC(=O)[C@H](CCC(N)=O)NC(=O)[C@H](Cc2ccc(O)cc2)NC1=O` [Leu-Ser-c[Cys-D-Gln-Leu-Tyr-Gln-Arg-CAM-]], the ring closure, yield after HPLC ([1]; from H-Leu-Ser-Cys-dGln-Leu-Tyr-Gln-Arg-NHCH2CH2SH, 23-membered ring, 0.94 mM) was 13%.

For `CC(C)C[C@@H]1NC(=O)[C@@H](CCC(N)=O)NC(=O)[C@@H](NC(=O)[C@H](CO)NC(=O)[C@@H](N)CC(C)C)CSSC[C@@H](C(=O)O)NC(=O)[C@H](CCC(N)=O)NC(=O)[C@H](Cc2ccc(O)cc2)NC1=O` [Leu-Ser-c[Cys-D-Gln-Leu-Tyr-Gln-Cys-]], the ring closure, yield after HPLC ([1]; from H-Leu-Ser-Cys-dGln-Leu-Tyr-Gln-Cys-OH, 20-membered ring, 1.04 mM) was 18%.

With `CC(C)C[C@@H]1NC(=O)[C@H](CCC(N)=O)NC(=O)[C@@H]2CCCN2C(=O)[C@@H](NC(=O)[C@@H](N)CC(C)C)CSSC[C@@H](C(=O)N[C@@H](CCCNC(=N)N)C(=O)O)NC(=O)[C@H](Cc2ccc(O)cc2)NC1=O` [Leu-c[Cys-Pro-Gln-Leu-Tyr-Cys-]Arg] the ring closure, yield after HPLC ([1]; from H-Leu-Cys-Pro-Gln-Leu-Tyr-Cys-Arg-OH, 20-membered ring, 1.0 mM) was 18%.

`CC(C)C[C@@H]1NC(=O)[C@H](CCC(N)=O)NC(=O)[C@@H](NC(=O)[C@H](CO)NC(=O)[C@@H](N)CC(C)C)CSSCCNC(=O)[C@H](CCCNC(=N)N)NC(=O)[C@H](CCC(N)=O)NC(=O)[C@H](Cc2ccc(O)cc2)NC1=O` [Peptide 1, Leu-Ser-c[Cys-Gln-Leu-Tyr-Gln-Arg-CAM]] (H-LSCQLYQR-Cysteamide; disulfide 3-C) gave an inhibition at 400 µM ([2]; at 400 µM and r.t. under stirring) of 25% and an IC50 ([3]; room temperature (20–22 °C) under stirring, standard error ±20% of the value) of 2120 µM.

In the case of `CC(C)C[C@@H]1NC(=O)[C@@H](CCC(N)=O)NC(=O)[C@@H](NC(=O)[C@H](CO)NC(=O)[C@@H](N)CC(C)C)CSSCCNC(=O)[C@H](CCCNC(=N)N)NC(=O)[C@H](CCC(N)=O)NC(=O)[C@H](Cc2ccc(O)cc2)NC1=O` [Peptide 3, Leu-Ser-c[Cys-D-Gln-Leu-Tyr-Gln-Arg-CAM]] (H-LSC[dQ]LYQR-Cysteamide; disulfide 3-C), the “% inhibition of hTS” value ([2]; at 500 µM and r.t.) is reported as “inactive”.

In the case of `CC(C)C[C@@H]1NC(=O)[C@H](CCC(N)=O)NC(=O)[C@@H]2CCCN2C(=O)[C@@H](NC(=O)[C@@H](N)CC(C)C)CSSC[C@@H](C(=O)N[C@@H](CCC(N)=O)C(=O)N[C@@H](CCCNC(=N)N)C(=O)O)NC1=O` [Leu-c[Cys-Pro-Gln-Leu-Cys-]Gln-Arg], the ring closure, yield after HPLC ([1]; from H-Leu-Cys-Pro-Gln-Leu-Cys-Gln-Arg-OH, 17-membered ring, 1.04 mM) is reported as 25%.

For `CC(C)C[C@@H]1NC(=O)[C@H](CCC(N)=O)NC(=O)[C@@H]2CCCN2C(=O)[C@H](CO)NC(=O)[C@@H](N)CSSC[C@@H](C(=O)O)NC(=O)[C@H](CCC(N)=O)NC(=O)[C@H](Cc2ccc(O)cc2)NC1=O` [c[Cys-Ser-Pro-Gln-Leu-Tyr-Gln-Cys]], the ring closure, yield after HPLC ([1]; from H-Cys-Ser-Pro-Gln-Leu-Tyr-Gln-Cys-OH, 26-membered ring, 1.06 mM) was 25%.

`CC(C)C[C@@H]1NC(=O)[C@H](CCC(N)=O)NC(=O)[C@@H]2CCCN2C(=O)[C@@H](NC(=O)[C@@H](N)CC(C)C)CSSC[C@@H](C(=O)N[C@@H](CCCNC(=N)N)C(=O)O)NC(=O)[C@H](Cc2ccc(O)cc2)NC1=O` [Peptide 7, Leu-c[Cys-Pro-Gln-Leu-Tyr-Cys]-Arg] (H-LCPQLYCR-OH; disulfide 2-7) gave an inhibition at 100 µM ([2]; at 100 µM and r.t. under stirring) of 59%, an inhibition at 500 µM ([2]; at 500 µM and r.t.) of 76% and a Ki ([2]; kinetic inhibition pattern, Figure S1, read-out: apparent KI) of 120 to 150 µM. For the same compound, the “cytotoxicity (in words)” value (IGROV-1 cells) was “intermediate cytotoxicities”.

Work on `CC(C)C[C@@H]1NC(=O)[C@H](CCC(N)=O)NC(=O)[C@@H](NC(=O)[C@H](CO)NC(=O)[C@@H](N)CC(C)C)CSSCCNC(=O)[C@H](CCCNC(=N)N)NC(=O)[C@H](CCC(N)=O)NC(=O)[C@H](Cc2ccc(O)cc2)NC1=O` [Leu-Ser-c[Cys-Gln-Leu-Tyr-Gln-Arg-CAM-]] yielded a ring closure, yield after HPLC ([1]; from H-Leu-Ser-Cys-Gln-Leu-Tyr-Gln-Arg-NHCH2CH2SH, 23-membered ring, 0.94 mM) of 15%.

Work on `CC(C)C[C@@H]1NC(=O)[C@H](CCC(N)=O)NC(=O)[C@@H]2CCCN2C(=O)[C@@H](NC(=O)[C@@H](N)CC(C)C)CSSC[C@@H](C(=O)O)NC(=O)[C@H](CCC(N)=O)NC(=O)[C@H](Cc2ccc(O)cc2)NC1=O` [Leu-c[Cys-Pro-Gln-Leu-Tyr-Gln-Cys-]] yielded a ring closure, yield after HPLC ([1]; from H-Leu-Cys-Pro-Gln-Leu-Tyr-Gln-Cys-OH, 23-membered ring, 1.03 mM) of 22%.

In the case of `CC(C)C[C@@H]1NC(=O)[C@@H](CCC(N)=O)NC(=O)[C@@H](NC(=O)[C@H](CO)NC(=O)[C@@H](N)CC(C)C)CSSC[C@@H](C(=O)N[C@@H](CCCNC(=N)N)C(=O)O)NC(=O)[C@H](Cc2ccc(O)cc2)NC1=O` [Leu-Ser-c[Cys-D-Gln-Leu-Tyr-Cys-]Arg], the ring closure, yield after HPLC ([1]; from H-Leu-Ser-Cys-dGln-Leu-Tyr-Cys-Arg-OH, 17-membered ring, 1.01 mM) is reported as 29%.

For `CC(C)C[C@@H]1NC(=O)[C@@H](CCC(N)=O)NC(=O)[C@@H](NC(=O)[C@H](CO)NC(=O)[C@@H](N)CC(C)C)CSSC[C@@H](C(=O)O)NC(=O)[C@H](CCC(N)=O)NC(=O)[C@H](Cc2ccc(O)cc2)NC1=O` [Peptide 4, Leu-Ser-c[Cys-D-Gln-Leu-Tyr-Gln-Cys]] (H-LSC[dQ]LYQC-OH; disulfide 3-8), the “% inhibition of hTS” value ([2]; at 500 µM and r.t.) was “inactive” and the “cytotoxicity (in words)” value (IGROV-1 cells) was “least active”.

From publication PMC6804113, “Cyclic Peptides Acting as Allosteric Inhibitors of Human Thymidylate Synthase and Cancer Cell Growth” (Molecules, 2019)
